Assay results from PMC9746714, “Aspartate α-decarboxylase a new therapeutic target in the fight against Helicobacter pylori infection” (Frontiers in Microbiology, 2022).
Converted amounts (≈) assume the structure as drawn.

Experiments:
[1] = test system: T1, Burkholderia cepacia ATCC BAA-245; assay: microbe, parasite or virus in culture; design: species or system bacterial species; broth microdilution MIC in Mueller-Hinton broth, visible growth; details: Burkholderia cepacia, ATCCBAA245, 20 h
T1 construct: ATCC BAA-245
Protocol: (§1) Assessment of the spectrum of activity of malonic acid The spectrum of activity of malonic acid was assessed by determining malonic acid MIC against eight other pathogenic bacterial species (A. baumannii ATCC 19606, B. cenocepacia ATCC BAA-245, E. coli ATCC 25922, E. faecium ATCC 27270, E. faecalis ATCC 19433, K. pneumoniae ATCC 10031, P. aeruginosa ATCC 27856, and S. aureus ATCC 25923) using broth microdilution method, according to the CLSI guidelines ([CLSI, 2018]). Malonic acid solution was serially diluted in Muller-Hinton broth (100 μL) to get concentrations ranging from 6 to 0.19 mg/mL. The inoculum was prepared to be equivalent to 0.5 McFarland standard (containing approximately 1–2 × 10^8 CFU/mL with most species) and was further diluted 1:10 (to get a concentration of 10^7 CFU/mL). 10 μL of the diluted inoculum was transferred to each well to contain 5 × 10^5 CFU/mL. Plates were incubated at 37°C for 20 h. […] The experiment was carried out in triplicates. Malonic acid MIC was determined against other pathogenic species (A. baumannii ATCC 19606, B. cenocepacia ATCC BAA-245, E. coli ATCC 25922, E. faecium ATCC 27270, E. faecalis ATCC 19433, K. pneumoniae ATCC 10031, P. aeruginosa ATCC 27856, and S. aureus ATCC 25923) by the broth microdilution method.

[2] = test system: T2, Pseudomonas aeruginosa ATCC 27856; assay: microbe, parasite or virus in culture; design: species or system bacterial species; broth microdilution MIC in Mueller-Hinton broth, visible growth; details: Pseudomonas aeruginosa, ATCC27856, 20 h
T2 construct: ATCC 27856
Protocol: as §1

[3] = test system: T3, Acinetobacter baumannii ATCC 19606; assay: microbe, parasite or virus in culture; design: species or system bacterial species; broth microdilution MIC in Mueller-Hinton broth, visible growth; details: Acinetobacter baumannii, ATCC19606, 20 h
T3 construct: ATCC 19606
Protocol: as §1

[4] = test system: T4, Staphylococcus aureus ATCC 25923; assay: microbe, parasite or virus in culture; design: species or system bacterial species; broth microdilution MIC in Mueller-Hinton broth, visible growth; details: Staphylococcus aureus, ATCC25923, 20 h
T4 construct: ATCC 25923
Protocol: as §1

[5] = test system: T5, Escherichia coli ATCC 25922; assay: microbe, parasite or virus in culture; design: species or system bacterial species; broth microdilution MIC in Mueller-Hinton broth, visible growth; details: Escherichia coli, ATCC25922, 20 h
T5 construct: ATCC 25922
Protocol: as §1

[6] = test system: T6, Enterococcus faecalis ATCC 19433; assay: microbe, parasite or virus in culture; design: species or system bacterial species; broth microdilution MIC in Mueller-Hinton broth, visible growth; details: Enterococcus faecalis, ATCC19433, 20 h
T6 construct: ATCC 19433
Protocol: as §1

[7] = test system: T7, Klebsiella pneumoniae ATCC 10031; assay: microbe, parasite or virus in culture; design: species or system bacterial species; broth microdilution MIC in Mueller-Hinton broth, visible growth; details: Klebsiella pneumoniae, ATCC10031, 20 h
T7 construct: ATCC 10031
Protocol: as §1

[8] = test system: T8, Enterococcus faecium ATCC 27270; assay: microbe, parasite or virus in culture; design: species or system bacterial species; broth microdilution MIC in Mueller-Hinton broth, visible growth; details: Enterococcus faecium, ATCC27270, 20 h
T8 construct: ATCC 27270
Protocol: as §1

[9] = test system: T9, Helicobacter pylori HPM001; assay: microbe, parasite or virus in culture; design: MIC against H. pylori by agar dilution and broth microdilution, microaerophilic, visible growth; details: HPM001, 72 h
T9 construct: HPM001
Protocol: (§2) The MIC of malonic acid was determined by agar dilution and broth microdilution methods, against H. pylori ATCC 43504 and H. pylori HPM001 strains. Malonic acid (Loba, India) was dissolved in distilled water to the desired concentration, sterilized by a […] syringe filter, and used within 72 h of preparation. Inocula for MIC testing were prepared by suspending colonies in saline to reach an optical density equivalent to 2.0 McFarland turbidity standard (approximately 1×10^7 to 1×10^8 CFU/mL) ([CLSI, 2015]). The culture media used in MIC determination were freshly prepared, according to the manufacturer’s instruction, and supplemented with 1% yeast extract (LabM, United Kingdom) to enhance bacterial growth ([Walsh and Moran, 1997]). MIC determination by broth microdilution method was carried out in 96-well round-bottom micro-titre plates. […] The MIC of malonic acid was determined by agar dilution and broth microdilution methods against H. pylori ATCC 43504 and H. pylori HPM001. […] No significant difference was recorded between the MIC of malonic acid against H. pylori ATCC 43504 and H. pylori HPM001 using either the agar (p = 0.8529) or the broth microdilution methods (p = 0.8784). There was also no significant difference between the mean MIC of malonic acid recorded against the tested strains by both methods (p = 0.54).

[10] = test system: T10, Helicobacter pylori ATCC 43504; assay: microbe, parasite or virus in culture; design: MIC against H. pylori by agar dilution and broth microdilution, microaerophilic, visible growth; details: ATCC43504, 72 h
T10 construct: ATCC 43504
Protocol: as §2

[11] = target: T11, Aspartate α-decarboxylase (ADC) (Helicobacter pylori, UniProt P56065); assay: HPLC measurement of β-alanine produced from L-aspartate by purified 6xHis-tagged ADC; type: biochemical
T11 construct: gene panD; recombinant 6xHis-tagged ADC, 117 amino acids for ADC plus six for the His-tag (from H. pylori ATCC 43504)
T11 sequence (P56065 1-24): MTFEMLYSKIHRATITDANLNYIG
T11 sequence (P56065 25-117): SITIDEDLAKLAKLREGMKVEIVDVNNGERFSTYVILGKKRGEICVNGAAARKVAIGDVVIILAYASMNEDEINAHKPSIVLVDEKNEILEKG

**Q.** With O=C(O)CC(=O)O [MA, propanedioic acid] as the molecule, how does the MIC [1] read?
**A.** Its MIC is 1000 ± 350 mg/L (≈ 9.61 mM).

**Q.** And the MIC [2]?
**A.** The MIC was 625 ± 180 mg/L (≈ 6.01 mM).

**Q.** And the MIC [3]?
**A.** The MIC was 750 mg/L (≈ 7.21 mM).

**Q.** What about the MIC [4] of the same molecule?
**A.** The MIC was 750 mg/L (≈ 7.21 mM).

**Q.** What about the MIC [5] of the same molecule?
**A.** The MIC was 750 mg/L (≈ 7.21 mM).

**Q.** What about the MIC [6] of the same molecule?
**A.** Its MIC is 625 ± 180 mg/L (≈ 6.01 mM).

**Q.** What about the MIC [7] of the same molecule?
**A.** The MIC was 1250 ± 350 mg/L (≈ 12 mM).

**Q.** And the MIC [8]?
**A.** Its MIC is 1000 ± 350 mg/L (≈ 9.61 mM).

**Q.** And the MIC [9]?
**A.** The MIC was 750 mg/L (≈ 7.21 mM).

**Q.** What about the MIC [10] of the same molecule?
**A.** The MIC was 625 ± 180 mg/L (≈ 6.01 mM).

**Q.** With NC(CC(=O)O)C(=O)O [L-aspartate, 2-amino-butanedioic acid] as the molecule, how does the “HPLC measurement of β-alanine produced from L-aspartate by purified 6xHis-tagged” value [11] read?
**A.** Its value is “assaying β-alanine, the product of the enzymatic action of recombinant H. pylori 6x-His-tagged ADC on aspartate”.
